In US12692274B2, “Tetrahydroisoquinoline derivatives for the treatment of red blood disorders and inflammatory diseases” (Sanofi, priority 2020, dated 2026):
Where “and” joins values, the source holds several entries; their conditions need not be identical. Equal entries are not always repeated.

Assays:
[1] = tested on: NQO1 activation in BEAS-2B cells; assay: BEAS-2B cellular MTT assay of NQO1 activation, 0% HSA; type: cell-based
How it was run: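 BEAS-2B cells grown in BEBM with BEGM SingleQuots (no GA-1000), kept below 70% confluence, seeded on collagen plates at a density giving 95-100% confluence after 48 h. Plates seeded in medium without HSA (0% HSA condition).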

[2] = tested on: NQO1 activation in BEAS-2B cells; assay: BEAS-2B cellular MTT assay of NQO1 activation, 0.3% HSA; type: cell-based
How it was run: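 BEAS-2B cells (<70% confluent in culture, BEBM/SingleQuots without GA-1000) seeded in collagen plates with 0.3% or 0% HSA, reaching 95-100% confluency after 48 h at 37 °C, 5% CO2; MTT read-out.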

[3] = target: HIS-Keap1 full length / Biotin-Nrf2 (16-mer) (Homo sapiens, UniProt Q14145); assay: biochemical
[4] = Homo sapiens, serum free, read-out: BEAS EC50 (nM) serum free
[5] = Homo sapiens, BEAS+, read-out: BEAS+ EC50
[6] = Homo sapiens, Serum Free W, read-out: BEAS EC50 (nM) Serum Free W
[7] = Serum Free W, read-out: BEAS EC50 (nM) Serum Free W
[8] = BEAS+ W, read-out: BEAS+ W EC50
[9] = Homo sapiens, BEAS+ W, read-out: BEAS+ W EC50
[10] = serum free, read-out: BEAS EC50 (nM) serum free

HIS-Keap1 full length / Biotin-Nrf2 (16-mer), sequence (Q14145 whole entry): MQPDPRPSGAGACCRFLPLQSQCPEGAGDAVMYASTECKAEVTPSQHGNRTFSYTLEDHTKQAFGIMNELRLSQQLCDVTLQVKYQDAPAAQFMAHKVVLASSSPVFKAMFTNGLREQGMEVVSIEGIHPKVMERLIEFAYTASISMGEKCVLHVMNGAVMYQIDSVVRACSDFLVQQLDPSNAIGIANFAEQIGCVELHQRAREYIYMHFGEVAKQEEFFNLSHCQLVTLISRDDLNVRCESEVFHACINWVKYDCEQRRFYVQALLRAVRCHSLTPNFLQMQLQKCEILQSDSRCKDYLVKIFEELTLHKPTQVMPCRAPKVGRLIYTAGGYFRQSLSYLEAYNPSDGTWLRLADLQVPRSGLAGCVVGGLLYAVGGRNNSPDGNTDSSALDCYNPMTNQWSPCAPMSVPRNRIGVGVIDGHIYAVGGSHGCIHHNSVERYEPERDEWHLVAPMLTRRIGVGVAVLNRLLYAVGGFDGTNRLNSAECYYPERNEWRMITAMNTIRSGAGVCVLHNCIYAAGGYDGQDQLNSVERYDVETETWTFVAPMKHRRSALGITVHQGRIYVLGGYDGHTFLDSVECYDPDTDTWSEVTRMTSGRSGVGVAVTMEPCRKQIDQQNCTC

Row | SMILES | EC50 [1, 4] [nM] | EC50 [2, 5] [nM] | IC50 [3] | EC50 [1, 6] [nM] | EC50 [1, 7] | EC50 [2, 8] | EC50 [2, 9] [nM] | EC50 [1, 10] [nM] | EC50 ([2]; BEAS+, read-out: BEAS+ EC50) [nM]
1 | Cc1c2ccc3c1nnn3CCCCCCOc1ccc(cc1)C(=O)N1CCc3ccc(cc3C1)[C@H]2[C@@H](C)C(=O)O [Compound 155] | > 10000 | > 10000 | 734 nM and 514 nM | – | – | – | – | – | –
2 | Cc1c2ccc3c1nnn3CCCCCc1ccc(cc1F)C(=O)N1CCc3ccc(cc3C1)C2CC(=O)O (centres unmarked) [Compound 267] | 3.9 | 5.3 | 2.4 nM and 2.3 nM | – | – | – | – | – | –
3 | Cc1c2ccc3c1nnn3CCCCCCc1ccc3c(c1)cc(n3CC(F)F)C(=O)N1CCc3ccc(cc3C1)[C@@H]2CC(=O)O [Compound 39] | – | – | 1 nM and 1.1 nM | 5.9 | 4.2 nM and 4.3 nM | 531 nM and 590 nM | 492 | – | –
4 | Cc1cc2ncc1[C@@H]([C@H](C)C(=O)O)c1ccc3c(c1)CN(CC3)C(=O)c1ccc(cc1)C/C=C/CCO2 [Compound 58] | – | – | 10.9 nM and 8.4 nM | 9.7 | 8.8 nM | 35.1 nM | 26.5 | – | –
5 | COc1cc2ccc1CCCCCCn1nnc3c(C)c(cnc31)C(CC(=O)O)c1ccc3c(c1)CN(CC3)C2=O (centres unmarked) [Compound 104] | 9.3 | 16.4 | 0.2 nM and 0.3 nM and 1.7 nM and 1.6 nM | 30 | 36.5 nM | 130 nM | 147 | 7.4 | 19.2
6 | Cc1cc2ccc1C(=O)N1CCc3ccc(cc3C1)C(CC(=O)O)c1cnc3c(nnn3CCCCCCO2)c1C (centres unmarked) [Compound 218] | 27.5 | 29.3 | 0.8 nM | – | – | – | – | 39.7 | 37.5
7 | O=C(O)CC1c2ccc3c(c2)CN(CC3)C(=O)c2ccc(cc2)CCCCCn2nnc3cc1ccc32 (centres unmarked) [Compound 276] | 88.5 | 49.3 | 2.2 nM and 2 nM and 2.1 nM | – | – | – | – | – | –
8 | Cc1c2cnc3c1nnn3CCCC/C=C/Cc1ccc(cc1)C(=O)N1CCc3ccc(cc3C1)[C@H]2CC(=O)O [Compound 352] | – | – | 6.8 nM and 7.7 nM | 21.9 | 33 nM | 481 nM | 417 | – | –
9 | Cc1c2ccc3c1nnn3CC/C=C/Cc1ccc(c(F)c1)C(=O)N1CCc3ccc(cc3C1)C2C(C)C(=O)O (centres unmarked) [Compound 376] | – | – | 1.3 nM and 1.4 nM | 2.1 | 2.3 nM | 4.5 nM and 5.5 nM | 3.9 | – | –
10 | Cc1c2ccc3c1nnn3CCCOCCOc1ccc(c(F)c1)C(=O)N1CCc3ccc(cc3C1)[C@@H]2[C@H](C)C(=O)O [Compound 369] | 2010 | 2080 | 13.2 nM and 14 nM | – | – | – | – | 1930 | 2230
11 | O=C(O)C[C@H]1c2cnc(nc2)OCCCCCc2c(F)c(F)c(c(F)c2F)C(=O)N2CCc3ccc1cc3C2 [Compound 45] | – | – | 229 nM and 244 nM | > 1000 | – | – | > 10000 | – | –
12 | Cc1nc2ncc1C(CC(=O)O)c1ccc3c(c1)CN(CC3)C(=O)c1ccc(c(Cl)c1)OCCCCO2 (centres unmarked) [Compound 186] | > 10000 | > 10000 | 527 nM and 289 nM | – | – | – | – | – | –
13 | O=C(O)C[C@@H]1c2cnc(nc2)OCC/C=C/Cc2c(F)c(F)c(c(F)c2F)C(=O)N2CCc3ccc1cc3C2 [Compound 40] | – | – | 46.2 nM and 53.6 nM | > 1000 | – | – | 3580 | – | –
14 | Cc1c2cnc3c1nnn3CCCCCCCc1ccc(cc1)C(=O)N1CCc3ccc(cc3C1)[C@H]2CC(=O)O [Compound 67] | – | – | 14 nM and 14.5 nM | 23 | 23.5 nM | 166 nM | 159 | – | –
15 | O=C(O)CC1c2ccc3c(c2)CN(CC3)C(=O)c2ccc3c(ccn3CCCCCCn3nnc4cc1ccc43)c2 (centres unmarked) [Compound 397] | 597 | 1520 | 13.9 nM and 14.8 nM | – | – | – | – | 659 | 2150
16 | Cc1c2n(C)c3ccc(cc13)C/C=C\CCCn1nnc3c(C)c(cnc31)[C@@H](CC(=O)O)c1ccc3c(c1)CN(CC3)C2=O [Compound 65] | – | – | 1.5 nM and 1.6 nM | 3.7 | 2.7 nM | 23.9 nM | 18.4 | – | –
17 | Cc1c2ccc3c1nnn3CCCCCCOc1cnc(cn1)C(=O)N1CCc3ccc(cc3C1)C2CC(=O)O (centres unmarked) [Compound 379, 2-(34-methyl-22-oxo-17-oxa-8,9,10,19,23,32-hexazahexacyclo[21.5.3.218,21.13,7.06,10.026,30]tetratriaconta-1(29),3,5,7(34),8,18,20,26(30),27,32-decaen-2-yl)acetic Acid] | 158 | 206 | 5.2 nM and 5.4 nM | – | – | – | – | 147 | 193
18 | Cc1c2ccc3c1nnn3CCCCCOc1ccc(cc1)C(=O)N1CCc3ccc(cc3C1)[C@@H]2[C@@H](C)C(=O)O [Compound 118] | – | – | 0.4 nM | 2.5 | 4.2 nM | 4.4 nM and 3.6 nM and 6.5 nM | 3.8 | – | –
19 | Cc1c2cnc3c1nnn3CCCCCCc1ccc(cc1)C(=O)N1CCc3ccc(cc3C1)C2CC(=O)O (centres unmarked) [Compound 216] | 1.8 | 35.8 | 2.1 nM and 2.3 nM | – | – | – | – | 2.5 | 28.2

Row | SMILES | EC50 [1, 4] [nM] | EC50 [2, 5] [nM] | IC50 [3] | EC50 [1, 6] [nM] | EC50 [1, 7] | EC50 [2, 8] | EC50 [2, 9] [nM] | EC50 [1, 10] [nM] | EC50 ([2]; BEAS+, read-out: BEAS+ EC50) [nM]
20 | Cc1c2ccc3c1nnn3CCCCCn1cc(c3ccccc31)C(=O)N1CCc3ccc(cc3C1)C2CC(=O)O (centres unmarked) [Compound 372] | 994 | 1630 | 0.2 nM | – | – | – | – | 1020 | 861
21 | COc1cc2ccc1CCCCCCn1nnc3c(C)c(cnc31)[C@H](CC(=O)O)c1ccc3c(c1)CN(CC3)C2=O [Compound 95] | – | – | 1.8 nM and 1.9 nM | 53.1 | 64.8 nM | 124 nM | 92 | – | –
22 | Cc1c2ccc3c1nnn3CCCCCCc1ccc(c3cccnc13)C(=O)N1CCc3ccc(cc3C1)[C@@H]2CC(=O)O [Compound 48] | – | – | 0.1 nM and 0.2 nM | 12 | 9.1 nM | 23.9 nM | 26.1 | – | –
23 | O=C(O)CC1c2ccc3c(c2)CN(CC3)C(=O)c2ccc(cn2)CCCCCCn2nnc3c(Cl)c1ccc32 (centres unmarked) [Compound 225] | 169 | 303 | 2.5 nM and 2.4 nM | – | – | – | – | 175 | 339
24 | O=C(O)CC1c2ccc3c(c2)CN(CC3)C(=O)c2ccc(cn2)OCCCCCCn2nnc3c(Cl)c1ccc32 (centres unmarked) [Compound 214] | 245 | 234 | 2.3 nM and 2.1 nM | – | – | – | – | 132 | 241
25 | Cc1c2ccc3c1nnn3CCCCCOc1ccc(cc1)C(=O)N1CCc3ccc(cc3C1)C2CC(=O)O (centres unmarked) [Compound 331] | 47.4 | 40.3 | 1.7 nM and 4.3 nM and 2.6 nM and 10.9 nM | – | – | – | – | – | –
26 | O=C(O)CC1c2ccc(nc2)OCCCCCCOc2ccc(cc2)C(=O)N2CCc3ccc1cc3C2 (centres unmarked) [Compound 319] | 432 | 1430 | 99 nM and 106 nM | – | – | – | – | – | –
27 | Cc1c2ccc3c1nnn3CCCOCCOc1cc(F)c(c(F)c1)C(=O)N1CCc3ccc(cc3C1)[C@@H]2[C@@H](C)C(=O)O [Compound 367] | 10.3 | 12.2 | 0.4 nM | – | – | – | – | 12.5 | 12.3
28 | O=C(O)CC1c2cnc(nc2)OCCCCCc2ccc(cc2)C(=O)N2CCc3ccc1cc3C2 (centres unmarked) [Compound 277, 2-(2-oxo-12-oxa-1,14,28-triazapentacyclo[16.5.3.23,6.213,16.021,25]triaconta-3,5,13(28),14,16(27),18(26),19,21(25),29-nonaen-17-yl)acetic Acid] | 459 | 3350 | 2.5 nM and 1.9 nM and 2.7 nM and 1.7 nM | – | – | – | – | – | –
29 | O=C(O)CC1c2ccc(nc2)OCCCCOc2cc(F)c(c(F)c2)C(=O)N2CCc3ccc1cc3C2 (centres unmarked) [Compound 210] | 482 | 1020 | 3.7 nM and 4 nM | – | – | – | – | 475 | 845
30 | Cc1cc2ncc1[C@H]([C@@H](C)C(=O)O)c1ccc3c(c1)CN(CC3)C(=O)c1ccc(cc1)C/C=C/CCO2 [Compound 59] | – | – | 8.1 nM and 7.3 nM | 1.7 | 1.6 nM | 4.4 nM | 5 | – | –
31 | O=C(O)CC1c2ccc(nc2)OCCCCOc2cnc(cn2)C(=O)N2CCc3ccc1cc3C2 (centres unmarked) [Compound 185] | > 10000 | > 10000 | > 1000 nM | – | – | – | – | – | –
32 | Cc1cc2ccc1C(=O)N1CCc3ccc(cc3C1)C(CC(=O)O)c1ccc(nc1C)OCCCCC2 (centres unmarked) [Compound 149] | 74.3 | 103 | 9.4 nM and 7.4 nM | – | – | – | – | 67.8 | 89.3
33 | Cc1c2cnc3c1nnn3CCCCCCOc1cc(F)c(c(F)c1)C(=O)N1CCc3ccc(cc3C1)[C@@H]2CC(=O)O [Compound 207] | – | – | 1.4 nM | 23.7 | 32.1 nM | 57.6 nM | 65.4 | – | –
34 | CC(C(=O)O)C1c2ccc3c(c2)CN(CC3)C(=O)c2ccc(cc2)OCCCCCn2nnc3cc1ccc32 (centres unmarked) [Compound 325] | 2.9 | 4 | < 0.1 nM | – | – | – | – | – | –
35 | C[C@H](C(=O)O)[C@H]1c2ccc3c(c2)CN(CC3)C(=O)c2ccc(cc2)OCCCCCn2nnc3cc1ccc32 [Compound 234] | 1840 | 3860 | 49.1 nM | – | – | – | – | 1410 | 5840
36 | Cc1c2cnc3c1nnn3CCCCCc1ccc(c(F)c1)C(=O)N1CCc3ccc(cc3C1)C2CC(=O)O (centres unmarked) [Compound 137] | 1.9 | 1.9 | 0.3 nM | – | – | – | – | 1.8 | 2.8
37 | Cc1cc2ccc1OCCCCCCn1nnc3c(C)c(ccc31)C(CC(=O)O)c1ccc3c(c1)CN(CC3)C2=O (centres unmarked) [Compound 260] | 400 | 337 | 6 nM | – | – | – | – | 403 | 484
